Experimental data: patent US20080207614A1, “QUINAZOLINE DERIVATIVES FOR THE TREATMENT AND PREVENTION OF DIABETES AND OBESITY” (SK CHEMICALS CO., LTD., priority 2004, published 2008)

Test system: C2C12 muscle cells
Assay: Analysis of glucose absorption (2-deoxyglucose) in differentiated C2C12 muscle cells
Type: cell-based
Conditions: test materials 10 μM, times relative to control group
Procedure: C2C12 muscle cells were cultured in DMEM (Dulbecco's modified Eagle's medium) containing 10% bovine calf serum. When the cell density increased to about 85 to 90%, the culture medium was replaced with 1% bovine calf serum and cell differentiation was induced for 6 days. Completely differentiated cells were cultured for 3 hours with Krebs-Ringer buffer (KRB) containing 5 mM glucose. The test materials were added at a concentration of 10 μM. 30 minutes later, 0.2 μCi 2-deoxyglucose was added. KRB was removed 20 minutes later and the cells were washed for 3 times with cold PBS. The cells were lysed with 0.5N NaOH and counted using a radioactive counter.

Fc1cccc(CCNc2nc(Cc3ccccc3)nc3ccccc23)c1 [Compound 220, (2-Benzylquinazolino-4-yl)-[2-(3-fluorophenyl)-ethyl]-amine]
Glucose absorption: 2.5

CCCCN(CCO)c1nc(-c2ccccc2)nc2ccccc12 [Compound 157, 2-[Butyl-(2-phenylquinazolino-4-yl)-amino]-ethanol]
Glucose absorption: 2.0

Fc1cccc(CNc2nc(-c3ccccn3)nc3ccccc23)c1 [Compound 231, (3-Fluorobenzyl)-(2-pyridino-2-ylquinazolino-4-yl)-amine]
Glucose absorption: 1.2

Fc1cccc(CNc2nc(-c3ccc(Cl)cc3)nc3ccccc23)c1 [Compound 267, [2-(4-Chlorophenyl)-quinazolino-4-yl]-(3-fluorobenzyl)-amine]
Glucose absorption: 1.0

Fc1cccc(CCNc2nc(C3CCCCC3)nc3ccccc23)c1 [Compound 208, (2-Cyclohexylquinazolino-4-yl)-[2-(3-fluorophenyl)-ethyl]-amine]
Glucose absorption: 2.0

CCSc1nc(NCCOC)c2ccccc2n1 [Compound 34, (2-Ethylsulfanylquinazolino-4-yl)-(2-methoxy-ethyl)-amine]
Glucose absorption: 1.3

c1ccc(CCCCNc2nc(-c3ccncc3)nc3ccccc23)cc1 [Compound 252, (4-Phenylbutyl)-(2-pyridino-4-ylquinazolino-4-yl)-amine]
Glucose absorption: 0.9

CC(C)c1nc(NCCO)c2ccccc2n1 [Compound 186, 2-(2-Isopropylquinazolino-4-ylamino)-ethanol]
Glucose absorption: 1.0

COc1ccc(CNc2nc(-c3ccccn3)nc3ccccc23)cc1 [Compound 225, (4-Methoxybenzyl)-(2-pyridino-2-ylquinazolino-4-yl)-amine]
Glucose absorption: 1.3

COc1cccc(CNc2nc(-c3ccc(Cl)cc3)nc3ccccc23)c1 [Compound 260, [2-(4-chlorophenyl)-quinazolino-4-yl]-(3-methoxybenzyl)-amine]
Glucose absorption: 1.4

CC(C)(C)c1nc(NCc2cccc(C(F)(F)F)c2)c2ccccc2n1 [Compound 190, (2-tert-Butylquinazolino-4-yl)-(3-trifluoromethylbenzyl)-amine]
Glucose absorption: 1.2

Cc1nc(NCCOCCO)c2ccccc2n1 [Compound 173, 2-[2-(2-Methylquinazolino-4-ylamino)-ethoxy]-ethanol]
Glucose absorption: 1.3

Clc1ccc(-c2nc(NCc3ccc4c(c3)OCO4)c3ccccc3n2)cc1 [Compound 266, Benzo[1,3]dioxol-5-ylmethyl-[2-(4-chlorophenyl)-quinazolino-4-yl]-amine]
Glucose absorption: 1.1

COc1cccc(CNc2nc(-c3cccnc3)nc3ccccc23)c1 [Compound 236, (3-Methoxybenzyl)-(2-pyridino-3-ylquinazolino-4-yl)-amine]
Glucose absorption: 1.2

Fc1ccc(Nc2nc(-c3ccccc3)nc3ccccc23)cc1 [Compound 76, (4-Fluorophenyl)-(2-phenylquinazolino-4-yl)-amine]
Glucose absorption: 1.0

COc1cccc(OC)c1CNc1nc(-c2ccccc2)nc2ccccc12 [Compound 154, (2,6-Dimethoxybenzyl)-(2-phenylquinazolino-4-yl)-amine]
Glucose absorption: 2.5

OCCNc1nc(-c2ccccn2)nc2ccccc12 [Compound 234, 2-(2-Pyridino-2-ylquinazolino-4-ylamino)-ethanol]
Glucose absorption: 1.1

Fc1cccc(CNc2nc(-c3ccncc3)nc3ccccc23)c1 [Compound 255, (3-Fluorobenzyl)-(2-pyridino-4-ylquinazolino-4-yl)-amine]
Glucose absorption: 1.3

COc1cccc(CNc2nc(-c3ccccc3)nc3ccccc23)c1OC [Compound 93, (2,3-Dimethoxybenzyl)-(2-phenylquinazolino-4-yl)-amine]
Glucose absorption: 1.1

Fc1cccc(CCNc2nc(-c3ccccn3)nc3ccccc23)c1 [Compound 232, [2-(3-Fluorophenyl)-ethyl]-(2-pyridino-2-ylquinazolino-4-yl)-amine]
Glucose absorption: 1.2

OCCOCCNc1nc(Cc2ccccc2)nc2ccccc12 [Compound 221, 2-[2-(2-Benzylquinazolino-4-ylamino)-ethoxy]-ethanol]
Glucose absorption: 1.5

CCCCCCCCCCCc1ccc(Nc2nc(-c3ccccc3)nc3ccccc23)cc1 [Compound 74, (2-Phenylquinazolino-4-yl)-(4-undecyl-phenyl)-amine]
Glucose absorption: 0.9

CCCCc1ccc(Nc2nc(-c3ccccc3)nc3ccccc23)cc1 [Compound 79, (4-Butyl-phenyl)-(2-phenylquinazolino-4-yl)-amine]
Glucose absorption: 1.1

c1ccc(-c2nc(NCC3CCCCC3)c3ccccc3n2)cc1 [Compound 132, Cyclohexylmethyl-(2-phenylquinazolino-4-yl)-amine]
Glucose absorption: 1.3

CCCCNc1nc(-c2ccccc2)nc2ccccc12 [Compound 56, Butyl-(2-phenylquinazolino-4-yl)-amine]
Glucose absorption: 1.1

COc1ccc(CNc2nc(Cc3ccccc3)nc3ccccc23)cc1 [Compound 213, (2-Benzylquinazolino-4-yl)-(4-methoxybenzyl)-amine]
Glucose absorption: 1.4

COc1ccccc1Nc1nc(-c2ccccc2)nc2ccccc12 [Compound 77, (2-Methoxyphenyl)-(2-phenylquinazolino-4-yl)-amine]
Glucose absorption: 1.4

FC(F)(F)c1ccccc1CNc1nc(-c2ccccc2)nc2ccccc12 [Compound 98, (2-Phenylquinazolino-4-yl)-(2-trifluoromethylbenzyl)-amine]
Glucose absorption: 1.2

c1ccc(CCCCNc2nc(-c3ccccc3)nc3ccccc23)cc1 [Compound 52, (4-Phenylbutyl)-(2-phenylquinazolino-4-yl)-amine]
Glucose absorption: 1.3

Cc1ccccc1Nc1nc(-c2ccccc2)nc2ccccc12 [Compound 71, (2-Phenylquinazolino-4-yl)-o-tollylamine]
Glucose absorption: 1.0

CCSc1nc(NC2CCCC2)c2ccccc2n1 [Compound 28, Cyclopentyl-(2-ethylsulfanylquinazolino-4-yl)-amine]
Glucose absorption: 1.1

CCCNc1nc(SCC)nc2ccccc12 [Compound 31, (2-Ethylsulfanylquinazolino-4-yl)-propylamine]
Glucose absorption: 1.1

c1ccc(Nc2nc(-c3ccccc3)nc3ccccc23)cc1 [Compound 69, Phenyl-(2-phenylquinazolino-4-yl)-amine]
Glucose absorption: 1.0

CCCCCCCCCCCCCCCCNc1nc(-c2ccccc2)nc2ccccc12 [Compound 99, Hexadecyl-(2-phenylquinazolino-4-yl)-amine]
Glucose absorption: 1.4

Clc1ccc(-c2nc(NCc3cccc4ccccc34)c3ccccc3n2)cc1 [Compound 265, [2-(4-Chlorophenyl)-quinazolino-4-yl]-naphthaleno-1-ylmethylamine]
Glucose absorption: 1.1

FC(F)(F)c1cccc(CNc2nc(-c3ccncc3)nc3ccccc23)c1 [Compound 250, (2-Pyridino-4-ylquinazolino-4-yl)-(3-trifluoromethylbenzyl)-amine]
Glucose absorption: 1.3

c1ccc(-c2nc(NCCC(c3ccccc3)c3ccccc3)c3ccccc3n2)cc1 [Compound 136, (3,3-Diphenylpropyl)-(2-phenylquinazolino-4-yl)-amine]
Glucose absorption: 1.3

Fc1cccc(CCNc2nc(-c3ccncc3)nc3ccccc23)c1 [Compound 256, [2-(3-Fluorophenyl)-ethyl]-(2-pyridino-4-ylquinazolino-4-yl)-amine]
Glucose absorption: 0.6

COc1cccc(CNc2nc(C(C)(C)C)nc3ccccc23)c1 [Compound 188, (2-tert-Butylquinazolino-4-yl)-(3-methoxybenzyl)-amine]
Glucose absorption: 1.0

c1ccc(CCCCNc2nc(C3CCCCC3)nc3ccccc23)cc1 [Compound 204, (2-Cyclohexylquinazolino-4-yl)-(4-phenylbutyl)-amine]
Glucose absorption: 1.2

OCCOCCNc1nc(-c2ccccn2)nc2ccccc12 [Compound 233, 2-[2-(2-Pyridino-2-ylquinazolino-4-ylamino)-ethoxy]-ethanol]
Glucose absorption: 1.4

OCCNc1nc(-c2cccnc2)nc2ccccc12 [Compound 246, 2-(2-Pyridino-3-ylquinazolino-4-ylamino)-ethanol]
Glucose absorption: 1.2

CCC(COC)Nc1nc(-c2ccccc2)nc2ccccc12 (centres unmarked) [Compound 104, (1-Methoxymethylpropyl)-(2-phenylquinazolino-4-yl)-amine]
Glucose absorption: 1.0

CCSc1nc(NCc2cc(OC)cc(OC)c2)c2ccccc2n1 [Compound 38, (3,5-Dimethoxybenzyl)-(2-ethylsulfanylquinazolino-4-yl)-amine]
Glucose absorption: 1.5

CCSc1nc(NCCN2CCCC2)c2ccccc2n1 [Compound 45, (2-Ethylsulfanylquinazolino-4-yl)-(2-pyrrolidino-1-ylethyl)-amine]
Glucose absorption: 1.1

c1ccc(-c2nc(NCc3ccc4c(c3)OCO4)c3ccccc3n2)cc1 [Compound 65, Benzo[1,3]dioxol-5-ylmethyl-(2-phenylquinazolino-4-yl)-amine]
Glucose absorption: 1.4

COc1cc(CNc2nc(Cc3ccccc3)nc3ccccc23)cc(OC)c1OC [Compound 332, (2-Benzylquinazolino-4-yl)-(3,4,5-trimethoxybenzyl)-amine]
Glucose absorption: 1.1

Brc1cccc(Nc2nc(-c3ccccc3)nc3ccccc23)c1 [Compound 83, (3-Bromophenyl)-(2-phenylquinazolino-4-yl)-amine]
Glucose absorption: 0.7

COc1ccc(CCNc2nc(-c3ccccc3)nc3ccccc23)cc1 [Compound 124, [2-(4-Methoxyphenyl)-ethyl]-(2-phenylquinazolino-4-yl)-amine]
Glucose absorption: 1.4

CC(C)(C)c1nc(NCc2cccc3ccccc23)c2ccccc2n1 [Compound 193, (2-tert-Butylquinazolino-4-yl)-naphthaleno-1-ylmethylamine]
Glucose absorption: 1.3
